What all share (format): cell-based
Assay [1] concerns Colorectal carcinoma HCT116 cells. The assay can be described thus: HCT116 + ETR1 cell death assay (MTT, 72 hours). Conditions: with HGS ETR1 40 ng/ml. How it is done: Colorectal carcinoma HCT116 cells were cultured as monolayers in 96 well plates at a density of 2000 cells per well in McCoy's 5a medium (HyClone) supplemented with 2.2 g/L sodium bicarbonate (Gibco), 10% FBS (HyClone) and 1% penecillin/streptomycin (HyClone). 24 hours later, triplicate wells were treated with HGS ETR1 (40 ng/ml) in combination with compound. Cells were incubated in the presence of compound and HGS agonistic Trail receptor antibody, ETR1 (Mapatumamab, 40 ng/ml) for 72 hours. Metabolic viability of remaining cells was assessed by MTT (thiazolyl blue tetrazolium bromide, Sigma) assay.
(§1) EC50 values (50% cell survival in the presence of compound as compared to untreated controls) were calculated from survival curves using BioAssay software (CambridgeSoft, HCT116 and SKOV3 SAR) and GraphPad Prism (Graph Pad Software Inc., Synoviocyte SAR).

In assay [2] the test system is Ovarian adenocarcinoma SKOV3 cells. The assay can be described thus: SKOV3 cell death assay (MTT, 72 hours). As to conditions: Homo sapiens, SK-OV-3, compound alone. How it is done: Ovarian adenocarcinoma SKOV3 cells were cultured as monolayers in McCoy's 5a medium (HyClone) supplemented with 2.2 g/L sodium bicarbonate (Gibco), 10% FBS (HyClone) and 1% penicillin/streptomycin (HyClone). Cells were seeded in 96 well plates at 5000 cells/well. After 24 hours in culture, cells were treated with compound. Cells were incubated in the presence of compound for 72 hours. Metabolic viability of remaining cells was assessed by MTT (thiazolyl blue tetrazolium bromide, Sigma) assay.
as §1

In assay [3] the test system is Rheumatoid arthritis human fibroblast-like synoviocytes (HFLS-RA). The assay can be described thus: Synoviocytes + Fas antibody cell survival assay (Cell Titer-Glo). Conditions: with 300 ng/ml anti-human CD95 (Fas) antibody CH-11, 72 hours, read-out: EC50 synoviocyctes + FAS. How it is done: Rheumatoid arthritis human fibroblast-like synoviocytes (HFLS-RA, Cell Applications Inc.) were seeded in 96-well plates at 3000 cells per well in complete synoviocyte growth medium (Cell Applications Inc.) one day prior to treatment. Triplicate wells were treated for 72 hours compound in combination with 300 ng/ml anti-human CD95 (Fas) antibody (clone CH-11, Beckman Coulter/Immunotech). Cell survival was measured by Cell Titer-Glo Luminescent Assay (Promega).
as §1

Drawing on patent publication US20110171171A1, “BRIDGED SECONDARY AMINES AND USE THEREOF AS IAP BIR DOMAIN BINDING COMPOUNDS” (Aegera Therapeutics, Inc., priority 2008, published 2011), this text covers EC50 for 11 compounds.

By EC50 is commonly meant the concentration needed to bring the measured effect to its halfway point.

In the case of `CN[C@@H](C)C(=O)N[C@H](C(=O)N1CCC[C@H]1CN(CCc1ccccc1)C(=O)CNC(=O)c1ccc(-c2ccc(C(=O)NCC(=O)N(CCc3ccccc3)C[C@@H]3CCCN3C(=O)[C@@H](NC(=O)[C@H](C)NC)C3CCCCC3)cc2)cc1)C1CCCCC1` [Compound 2], the 50% effective concentration (EC50) in assay [1], in assay [2] and in assay [3] was less than 100 nM each time.
Regarding `CN[C@@H](C)C(=O)N[C@H](C(=O)N1CCC[C@H]1CN(CCc1ccc(F)cc1)C(=O)c1ccc(-c2ccc(C(=O)N(CCc3ccc(F)cc3)C[C@@H]3CCCN3C(=O)[C@@H](NC(=O)[C@H](C)NC)C3CCCCC3)cc2)cc1)C1CCCCC1` [Compound 6], the EC50 in assay [1], in assay [2] and in assay [3] was less than 100 nM each time.
For `CN[C@@H](C)C(=O)N[C@H](C(=O)N1CCC[C@H]1CN(CCc1ccc(F)cc1)C(=O)CNC(=O)c1ccc(-c2ccc(C(=O)NCC(=O)N(CCc3ccc(F)cc3)C[C@@H]3CCCN3C(=O)[C@@H](NC(=O)[C@H](C)NC)C3CCCCC3)cc2)cc1)C1CCCCC1` [Compound 8], the EC50 in assay [1], in assay [2] and in assay [3] was less than 100 nM throughout.
Take `CN[C@@H](C)C(=O)N[C@H](C(=O)N1CCC[C@H]1CN(CCc1ccc(F)cc1)C(=O)c1ccc2cc(C(=O)N(CCc3ccc(F)cc3)C[C@@H]3CCCN3C(=O)[C@@H](NC(=O)[C@H](C)NC)C3CCCCC3)ccc2c1)C1CCCCC1` [Compound 11]: the half-maximal effective concentration (EC50) in assay [1] and in assay [3] was less than 100 nM throughout.
Turning to `CN[C@@H](C)C(=O)N[C@H](C(=O)N1CCC[C@H]1CN(CCc1ccccc1)C(=O)CNC(=O)c1ccc(-c2ccc(C(=O)NCC(=O)N(CCc3ccccc3)C[C@@H]3CCCN3C(=O)[C@@H](NC(=O)[C@H](C)NC)C3CCCC3)cc2)cc1)C1CCCC1` [Compound 17], the EC50 in assay [1], in assay [2] and in assay [3] was less than 100 nM each time.
With `CN[C@@H](C)C(=O)N[C@H](C(=O)N1CCC[C@H]1CN(CCc1ccccc1)C(=O)c1ccc(-c2ccc(C(=O)N(CCc3ccccc3)C[C@@H]3CCCN3C(=O)[C@@H](NC(=O)[C@H](C)NC)C3CCCCC3)cc2)cc1)C1CCCCC1` [Compound 18], the EC50 in assay [1] and in assay [3] was less than 100 nM throughout.
As to `CN[C@@H](C)C(=O)N[C@H](C(=O)N1CCC[C@H]1CN(CCc1ccccc1)C(=O)c1ccc2cc(C(=O)N(CCc3ccccc3)C[C@@H]3CCCN3C(=O)[C@@H](NC(=O)[C@H](C)NC)C3CCC3)ccc2c1)C1CCC1` [Compound 19], the half-maximal effective concentration (EC50) in assay [1] and in assay [3] was less than 100 nM throughout.
Take `CN[C@@H](C)C(=O)N[C@H](C(=O)N1CCC[C@H]1CN(CCc1ccccc1)C(=O)c1ccc2cc(C(=O)N(CCc3ccccc3)C[C@@H]3CCCN3C(=O)[C@@H](NC(=O)[C@H](C)NC)C3CC3)ccc2c1)C1CC1` [Compound 20]: the half-maximal effective concentration (EC50) in assay [1] was less than 100 nM; in assay [3] it was more than 100 nM.
Turning to `CN[C@@H](C)C(=O)N[C@H](C(=O)N1CCC[C@H]1CN(CCc1ccccc1)C(=O)c1ccc(-c2ccc(C(=O)N(CCc3ccccc3)C[C@@H]3CCCN3C(=O)[C@@H](NC(=O)[C@H](C)NC)C3CCC3)cc2)cc1)C1CCC1` [Compound 21], the 50% effective concentration (EC50) in assay [1] and in assay [3] was less than 100 nM throughout.
As to `CN[C@@H](C)C(=O)N[C@H](C(=O)N1CCC[C@H]1CN(CCc1ccccc1)C(=O)c1ccc(-c2ccc(C(=O)N(CCc3ccccc3)C[C@@H]3CCCN3C(=O)[C@@H](NC(=O)[C@H](C)NC)C3CC3)cc2)cc1)C1CC1` [Compound 22], the EC50 in assay [1] and in assay [3] was less than 100 nM each time.
In the case of `CN[C@@H](C)C(=O)N[C@H](C(=O)N1CCC[C@H]1CN(CCc1ccccc1)C(=O)c1ccc(-c2ccc(C(=O)N(CCc3ccccc3)C[C@@H]3CCCN3C(=O)[C@@H](NC(=O)[C@H](C)NC)C3CCCC3)cc2)cc1)C1CCCC1` [Compound 23], the concentration giving a half-maximal response (EC50) in assay [1] and in assay [3] was less than 100 nM each time.
